According to US20240279236A1, “COMPOUNDS AND METHODS OF TREATING TUBERCULOSIS” (Fimbrion Therapeutics, Inc., priority 2021, published 2024):

Each compound was assayed on WT Mtb Erdman strain (assay: Microplate Alamar Blue Assay (MABA), Mtb growth inhibition). Settings: Middlebrook 7H9 media, 7 days at 37° C. in 5% CO2.
Assay type: cell-based, Mycobacterium tuberculosis
Compound `Cc1cc2c(NCCCc3ccc(-c4ccc(OC(F)(F)F)cc4)cc3)nc(N(C)C)nc2s1` [Example 535, N2,N2,6-trimethyl-N4-(3-(4′-(trifluoromethoxy)-[1,1′-biphenyl]-4-yl)propyl)thieno[2,3-d]pyrimidine-2,4-diamine] has an IC50 of 4 nM.

Same assay, conditions: Mycobacterium tuberculosis, ERDMAN, 168 h, Middlebrook 7H9 media, 7 days at 37° C. in 5% CO2
Compound `COC1CN(c2nc(NCCCc3ccccc3)c3cc(C)sc3n2)C1` [Example 518, 2-(3-methoxyazetidin-1-yl)-6-methyl-N-(3-phenylpropyl)thieno[2,3-d]pyrimidin-4-amine] has an IC50 of 1900 nM. Work on `Cc1nc2c(NCCCc3ccc(-c4cnc(F)cn4)cc3)nc(Cl)nc2s1` [Example 470, 5-chloro-N-(3-(4-(5-fluoropyrazin-2-yl)phenyl)propyl)-2-methylthiazolo[5,4-d]pyrimidin-7-amine] yielded an IC50 of 330 nM. Compound `Cc1cc2c(NCCCc3ccc(-c4ccsc4)cc3)nc(-c3ccoc3)nc2s1` [Example 334, 2-(furan-3-yl)-6-methyl-N-(3-[4-(thiophen-3-yl)phenyl]propyl) thieno[2,3-d]pyrimidin-4-amine] has an IC50 of 8 nM. In the case of `Cc1cc2c(N[C@@H]3C[C@H]3c3ccc(F)c(F)c3)nc(C3CCC3)nc2s1` [Example 115, 2-cyclobutyl-N-((1R,2S)-2-(3,4-difluorophenyl)cyclopropyl)-6-methylthieno[2,3-d]pyrimidin-4-amine], the IC50 is reported as 640 nM. In the case of `Cc1cc2c(N[C@@H]3C[C@H]3c3ccc(F)c(F)c3)nc(-c3cncnc3)nc2s1` [Example 493, N-((1R,2S)-2-(3,4-difluorophenyl)cyclopropyl)-6-methyl-2-(pyrimidin-5-yl)thieno[2,3-d]pyrimidin-4-amine], the IC50 is reported as greater than 10000 nM. For `COC(=O)c1ccc(-c2ccc(CCCNc3nc(-c4ccoc4)nc4sc(C)cc34)cc2)cc1` [Example 318, methyl 4′-(3-((2-(furan-3-yl)-6-methylthieno[2,3-d]pyrimidin-4-yl)amino)propyl)-[1,1′-biphenyl]-4-carboxylate], the IC50 was 20 nM. In the case of `Cc1cc2c(N[C@@H]3C[C@H]3c3ccccc3)nc(C(F)(F)F)nc2s1` [Example 167, 6-methyl-N-((1R,2S)-2-phenylcyclopropyl)-2-(trifluoromethyl) thieno[2,3-d] pyrimidin-4-amine], the IC50 is reported as 490 nM. Work on `Cc1cc2c(N[C@@H]3C[C@H]3c3ccc(F)c(F)c3)nc(C(F)(F)F)nc2s1` [Example 28, N-((1R,2S)-2-(3,4-difluorophenyl)cyclopropyl)-6-methyl-2-(trifluoromethyl) thieno [2,3-d]pyrimidin-4-amine] yielded an IC50 of 2100 nM. With `Cc1cc2c(NCCCc3ccccc3)nc([S+](C)[O-])nc2s1` (centres unmarked) [Example 581, 6-methyl-2-(methylsulfinyl)-N-(3-phenylpropyl)thieno[2,3-d]pyrimidin-4-amine] the IC50 was 1300 nM. `Cc1cc2c(NCCCn3cccc3)nc(C(F)(F)F)nc2s1` [Example 164, N-(3-(1H-pyrrol-1-yl)propyl)-6-methyl-2-(trifluoromethyl) thieno[2,3-d] pyrimidin-4-amine] showed an IC50 of 1700 nM. `Cc1cc2c(NCCCc3ccc(-c4cnc(C#N)cn4)cc3)nc(-c3ccoc3)nc2s1` [Example 396, 5-[4-(3-([2-(furan-3-yl)-6-methylthieno[2,3-d]pyrimidin-4-yl]amino)propyl)phenyl]pyrazine-2-carbonitrile] gave an IC50 of less than 5 nM. With `CCc1nc(NCCCc2cc3ccccc3s2)c2cc(C)sc2n1` [Example 261, N-(3-(benzo[b]thiophen-2-yl)propyl)-2-ethyl-6-methylthieno[2,3-d]pyrimidin-4-amine] the IC50 was 280 nM. `Cc1cc2c(N[C@@H]3C[C@H]3c3ccc(F)c(F)c3)nc(Sc3ccccc3)nc2s1` [Example 155, N-((1R,2S)-2-(3,4-difluorophenyl)cyclopropyl)-6-methyl-2-(phenylthio)thieno[2,3-d]pyrimidin-4-amine] was tested, and the IC50 was greater than 10000 nM. For `FC(F)(F)Oc1ccc(-c2ccc(CCCNc3nc(Cl)nc4sccc34)cc2)cc1` [Example 467, 2-chloro-N-(3-(4′-(trifluoromethoxy)-[1,1′-biphenyl]-4-yl)propyl)thieno[2,3-d]pyrimidin-4-amine], the IC50 was 200 nM. `Cc1nc2c(NCCCc3ccc(-c4cnc(F)cn4)cc3)nc(-c3ccon3)nc2s1` [Example 465, N-(3-[4-(5-fluoropyrazin-2-yl)phenyl]propyl)-2-methyl-5-(1,2-oxazol-3-yl)-[1,3]thiazolo[5,4-d]pyrimidin-7-amine] was tested, and the IC50 was 180 nM. Work on `Cc1cc2c(NCCCc3ccc(-c4ccc(C5CC5)cc4)cc3)nc(Cl)nc2s1` [Example 437, 2-chloro-N-(3-(4′-cyclopropyl-[1,1′-biphenyl]-4-yl)propyl)-6-methylthieno[2,3-d]pyrimidin-4-amine] yielded an IC50 of 85 nM. `Fc1ccc([C@@H]2C[C@H]2Nc2nc(Cl)nc3sccc23)cc1F` [Example 220, 2-chloro-N-((1R,2S)-2-(3,4-difluorophenyl)cyclopropyl)thieno[2,3-d]pyrimidin-4-amine] showed an IC50 greater than 7200 nM. Work on `Cc1cc2c(N[C@@H]3C[C@H]3c3ccc(F)c(F)c3)nc(-c3cccnc3)nc2s1` [Example 44, N-((1R,2S)-2-(3,4-difluorophenyl)cyclopropyl)-6-methyl-2-(pyridin-3-yl)thieno[2,3-d]pyrimidin-4-amine] yielded an IC50 of 6300 nM. For `CCc1nc(NCCCc2c[nH]nn2)c2cc(C)sc2n1` [Example 562, N-(3-(1H-1,2,3-triazol-4-yl)propyl)-2-ethyl-6-methylthieno[2,3-d]pyrimidin-4-amine], the IC50 was greater than 10000 nM. With `Cc1cc2c(NCCCc3ccc(-c4ccc(OC(F)(F)F)cc4)cc3)nc(C#N)nc2s1` [Example 605, 6-methyl-4-((3-[4′-(trifluoromethoxy)-[1,1′-biphenyl]-4-yl]propyl)amino)thieno[2,3-d]pyrimidine-2-carbonitrile] the IC50 was greater than 10000 nM. In the case of `Cc1cc2c(NCCCc3ccccc3)nc(N3CCCC3)nc2s1` [Example 516, 6-methyl-N-(3-phenylpropyl)-2-(pyrrolidin-1-yl)thieno[2,3-d]pyrimidin-4-amine], the IC50 is reported as 110 nM. In the case of `Cc1nc2c(NCCCc3ccccc3)nc(-c3ccncn3)nc2s1` [Example 149, 2-methyl-N-(3-phenylpropyl)-5-(pyrimidin-4-yl)thiazolo[5,4-d]pyrimidin-7-amine], the IC50 is reported as 2000 nM. `Cc1cc2c(NCCCc3ccc(OC(F)(F)F)cc3)nc(-n3ccnn3)nc2s1` [Example 587, 6-methyl-2-(1H-1,2,3-triazol-1-yl)-N-(3-(4-(trifluoromethoxy)phenyl)propyl)thieno[2,3-d]pyrimidin-4-amine] showed an IC50 of 1100 nM. Work on `CCc1nc(NCCCc2ccc(F)c(F)c2)c2cc(C)sc2n1` [Example 59, N-(3-(3,4-difluorophenyl)propyl)-2-ethyl-6-methylthieno[2,3-d]pyrimidin-4-amine] yielded an IC50 of 430 nM. Compound `CCc1nc(NCCc2cccc(C(F)(F)F)c2)c2cc(C)sc2n1` [Example 20, 2-ethyl-6-methyl-N-(3-(trifluoromethyl)phenethyl)thieno[2,3-d]pyrimidin-4-amine] has an IC50 of 4900 nM. `CCc1nc(NCCCc2ccc(-c3cnc(C(F)(F)F)cn3)cc2)c2cc(C)sc2n1` [Example 369, 2-ethyl-6-methyl-N-(3-(4-(5-(trifluoromethyl)pyrazin-2-yl)phenyl)propyl)thieno[2,3-d]pyrimidin-4-amine] gave an IC50 of 21 nM. With `CCc1nc(NCCCc2ccc(-c3cccc(S(C)(=O)=O)c3)cc2)c2cc(C)sc2n1` [Example 283, 2-ethyl-6-methyl-N-(3-(3′-(methylsulfonyl)-[1,1′-biphenyl]-4-yl)propyl)thieno [2,3-d]pyrimidin-4-amine] the IC50 was 3200 nM. Work on `Cc1cc2c(N[C@@H]3C[C@H]3c3ccc(F)c(F)c3)nc(-c3ccoc3)nc2s1` [Example 114, N-((1R,2S)-2-(3,4-difluorophenyl)cyclopropyl)-2-(furan-3-yl)-6-methylthieno[2,3-d]pyrimidin-4-amine] yielded an IC50 of 620 nM. For `CCc1nc(NCCc2ccc(O)cc2)c2cc(C)sc2n1` [Example 67, 4-(2-((2-ethyl-6-methylthieno[2,3-d]pyrimidin-4-yl)amino)ethyl)phenol], the IC50 was greater than 10000 nM. `Cc1cc2c(NCCCOc3ccc(Cl)cc3)nc(C(F)(F)F)nc2s1` [Example 72, N-(3-(4-chlorophenoxy)propyl)-6-methyl-2-(trifluoromethyl)thieno [2,3-d]pyrimidin-4-amine] was tested, and the IC50 was 3900 nM. Compound `CCc1nc(NCCCN(C)c2ccccc2)c2cc(C)sc2n1` [Example 195, N1-(2-ethyl-6-methylthieno[2,3-d]pyrimidin-4-yl)-N3-methyl-N3-phenylpropane-1,3-diamine] has an IC50 of 680 nM. For `Cc1cc2c(NCCCc3ccc(-c4cnc(C(=O)N(C)C)cn4)cc3)nc(-c3ccoc3)nc2s1` [Example 401, 5-[4-(3-([2-(furan-3-yl)-6-methylthieno[2,3-d]pyrimidin-4-yl]amino)propyl)phenyl]-N,N-dimethylpyrazine-2-carboxamide], the IC50 was 2200 nM. With `Cc1cc2c(NCCCc3ccc(-c4ccc(F)cn4)cc3)nc(-c3ccoc3)nc2s1` [Example 382, N-(3-[4-(5-fluoropyridin-2-yl)phenyl]propyl)-2-(furan-3-yl)-6-methylthieno[2,3-d]pyrimidin-4-amine] the IC50 was 8 nM. For `CCc1nc(NCCCc2ccc(-c3ccc(OC(F)(F)F)cc3)cc2)c2cc(C)sc2n1` [Example 266, 2-ethyl-6-methyl-N-(3-(4′-(trifluoromethoxy)-[1,1′-biphenyl]-4-yl)propyl)thieno [2,3-d]pyrimidin-4-amine], the IC50 was 49 nM. For `Cc1cc2c(NCCCc3ccncc3)nc(C(F)(F)F)nc2s1` [Example 157, 6-methyl-N-(3-(pyridin-4-yl)propyl)-2-(trifluoromethyl) thieno[2,3-d] pyrimidin-4-amine], the IC50 was greater than 10000 nM. With `Cc1cc2c(N[C@@H]3C[C@H]3c3ccc(F)c(F)c3)nc(-c3ccc(F)cc3)nc2s1` [Example 56, N-((1R,2S)-2-(3,4-difluorophenyl)cyclopropyl)-2-(4-fluorophenyl)-6-methylthieno[2,3-d]pyrimidin-4-amine] the IC50 was 4200 nM. `Cc1cc2c(NCCCc3ccc(-c4cnc(N(C)C)cn4)cc3)nc(-c3ccoc3)nc2s1` [Example 381, 5-[4-(3-([2-(furan-3-yl)-6-methylthieno[2,3-d]pyrimidin-4-yl]amino)propyl)phenyl]-N,N-dimethyl-pyrazin-2-amine] gave an IC50 of 39 nM.
